# Data published in ChEMBL document CHEMBL4385594, “4(3H)-Quinazolinone derivatives: Promising antibacterial drug leads” (Eur J Med Chem, 2019).
# Columns and labels:
# MCF7 = test: Cytotoxicity against human MCF7 cells assessed as reduction in cell viability at 0.1 to 100 uM by MTT assay; format: functional, cell-based
# Staphylococcus aureus [1] = test: Antibacterial activity against Staphylococcus aureus assessed as reduction in bacterial cell growth at 0.03 to 64 ug/ml incubated for 16 to 18 hrs by CLSI broth dilution method; format: functional
# Suillus luteus = test: Antifungal activity against Suillus luteus assessed as reduction in fungal cell growth; format: functional
# Escherichia coli [2] = test: Antibacterial activity against Escherichia coli assessed as diameter of zone inhibition at 100 ppm by disc diffusion method; format: functional; conditions: read-out: DIZ
# Staphylococcus aureus [3] = test: Antibacterial activity against Staphylococcus aureus assessed as diameter of zone inhibition at 100 ppm by disc diffusion method; format: functional; conditions: read-out: DIZ
# Staphylococcus aureus [4] = test: Antibacterial activity against Staphylococcus aureus ATCC 25923 assessed as reduction in bacterial cell growth at 0.03 to 64 ug/ml incubated for 16 to 18 hrs by CLSI broth dilution method; format: functional
# Escherichia coli [5] = test: Antibacterial activity against Escherichia coli ATCC 25922 assessed as reduction in bacterial cell growth at 0.03 to 64 ug/ml incubated for 16 to 18 hrs by CLSI broth dilution method; format: functional
# Pseudomonas aeruginosa [6] = test: Antibacterial activity against Pseudomonas aeruginosa ATCC 27853 assessed as reduction in bacterial cell growth at 0.03 to 64 ug/ml incubated for 16 to 18 hrs by CLSI broth dilution method; format: functional
# Enterococcus faecalis = test: Antibacterial activity against Enterococcus faecalis ATCC 29212 assessed as reduction in bacterial cell growth at 0.03 to 64 ug/ml incubated for 16 to 18 hrs by CLSI broth dilution method; format: functional
# Staphylococcus aureus [7] = test: Antibacterial activity against Staphylococcus aureus; format: functional
# Staphylococcus aureus [8] = test: Antibacterial activity against Staphylococcus aureus assessed as inhibition zone; format: functional
# Acinetobacter baumannii [9] = test: Antibacterial activity against multidrug-resistant Acinetobacter baumannii assessed as reduction in bacterial cell growth incubated for 24 hrs by broth dilution method; format: functional
# [10] = Cytotoxicity against human HepG2 cells assessed as reduction in cell viability at 0 to 50 uM incubated for 48 hrs by MTT assay; format: cell-based; conditions: read-out: LD50
# Acinetobacter baumannii [11] = test: Antibacterial activity against Acinetobacter baumannii 1646 infected in mouse model of peritonitis assessed as increase in survival rate at 2 mg/kg, ip dosed at 1 hr post infection (reference value: 66%); format: functional; conditions: Acinetobacter baumannii, 1646, ip
# Staphylococcus aureus [12] = test: Antibacterial activity against methicillin-resistant Staphylococcus aureus assessed as reduction in bacterial cell growth at 0.5 to 512 ug/ml incubated for 24 hrs by CLSI broth microdilution method; format: functional
# Helicobacter pylori = test: Antibacterial activity against Helicobacter pylori assessed as reduction in bacterial cell growth by agar dilution method; format: functional
# Staphylococcus aureus [13] = test: Antibacterial activity against Staphylococcus aureus NCIM 2901 assessed as reduction in bacterial cell growth at 0.03 to 64 ug/ml incubated for 16 to 18 hrs by CLSI broth microdilution method; format: functional
# Bacillus subtilis = test: Antibacterial activity against Bacillus subtilis MTCC 441 assessed as reduction in bacterial cell growth at 0.03 to 64 ug/ml incubated for 16 to 18 hrs by CLSI broth microdilution method; format: functional
# Pseudomonas aeruginosa [14] = test: Antibacterial activity against Pseudomonas aeruginosa NCIM 2036 assessed as reduction in bacterial cell growth at 0.03 to 64 ug/ml incubated for 16 to 18 hrs by CLSI broth microdilution method; format: functional
compound,measurement,setting,value
Cn1cc[n+](C(Cn2cnc3ccc(Cl)cc3c2=O)c2cc3cc(Br)ccc3o2)c1 (stereo not given),IC50,MCF7,0.57 to 1 µM
N#Cc1ccc(/C=C/c2nc3ccccc3c(=O)n2-c2cccc(OCc3cn(Cc4ccccc4)nn3)c2)cc1,MIC,Staphylococcus aureus [1],0.5 µg/mL
N#Cc1ccc(/C=C/c2nc3ccccc3c(=O)n2-c2cccc(OCc3cn(Cc4ccc([N+](=O)[O-])cc4)nn3)c2)cc1,MIC,Staphylococcus aureus [1],2 µg/mL
N#Cc1ccc(/C=C/c2nc3ccccc3c(=O)n2-c2cccc(OCc3cn(Cc4ccc(Br)cc4)nn3)c2)cc1,MIC,Staphylococcus aureus [1],16 µg/mL
N#Cc1ccc(/C=C/c2nc3ccccc3c(=O)n2-c2ccc(OCc3cn(Cc4ccc(Br)cc4)nn3)cc2)cc1,MIC,Staphylococcus aureus [1],> 64 µg/mL
N#Cc1ccc(/C=C/c2nc3ccccc3c(=O)n2-c2cccc(OCc3cn(-c4ccc(C(F)(F)F)cc4)nn3)c2)cc1,MIC,Staphylococcus aureus [1],4 µg/mL
N#Cc1ccc(/C=C/c2nc3ccccc3c(=O)n2-c2cccc(OCc3cn(-c4cccc(C(=O)O)c4)nn3)c2)cc1,MIC,Staphylococcus aureus [1],4 µg/mL
COc1ccc(Cn2cc(COc3cccc(-n4c(/C=C/c5ccc(C#N)cc5)nc5ccccc5c4=O)c3)nn2)cc1,MIC,Staphylococcus aureus [1],0.5 µg/mL
N#Cc1ccc(/C=C/c2nc3ccccc3c(=O)n2-c2cccc(OCc3cn(-c4cccc(Cl)c4)nn3)c2)cc1,MIC,Staphylococcus aureus [1],0.5 µg/mL
N#Cc1ccc(/C=C/c2nc3ccccc3c(=O)n2-c2cccc(OCc3cn(Cc4cccc(Br)c4)nn3)c2)cc1,MIC,Staphylococcus aureus [1],0.5 µg/mL
Cc1cccc(-n2cc(COc3cccc(-n4c(/C=C/c5ccc(C#N)cc5)nc5ccccc5c4=O)c3)nn2)c1,MIC,Staphylococcus aureus [1],0.5 µg/mL
O=c1c2ccccc2nc(/C=C/c2ccc(Cl)cc2)n1-c1cccc(OCc2cn(-c3cccc(F)c3)nn2)c1,MIC,Staphylococcus aureus [1],4 µg/mL
COc1ccc(-n2cc(COc3cccc(-n4c(/C=C/c5ccc(C#N)cc5)nc5ccccc5c4=O)c3)nn2)cc1,MIC,Staphylococcus aureus [1],4 µg/mL
N#Cc1ccc(/C=C/c2nc3ccccc3c(=O)n2-c2cccc(OCc3cn(-c4cccc(F)c4)nn3)c2)cc1,MIC,Staphylococcus aureus [1],0.5 µg/mL
N#Cc1ccc(/C=C/c2nc3ccccc3c(=O)n2-c2cccc(OCc3cn(-c4ccc(Cl)cc4)nn3)c2)cc1,MIC,Staphylococcus aureus [1],0.5 µg/mL
C#CCOc1cccc(-n2c(/C=C/c3ccc(C#N)cc3)nc3c(C)cccc3c2=O)c1,MIC,Staphylococcus aureus [1],1 µg/mL
CCCCNC(=O)Oc1ccc(-n2c(/C=C/c3ccc(Cl)cc3)nc3cc(Cl)ccc3c2=O)cc1,MIC,Suillus luteus,125 µg/mL
Cc1nc2ccc(Br)cc2c(=O)n1/N=C/c1cc(Br)cc(Br)c1O,zone of inhibition at 100 ppm,Escherichia coli [2],27 mm
same,zone of inhibition at 100 ppm,Staphylococcus aureus [3],24 mm
Cn1cc[n+](C(Cn2cnc3ccc(Cl)cc3c2=O)c2cc3ccccc3o2)c1 (stereo not given),IC50,MCF7,0.57 to 1 µM
CC(C)NC(=O)c1cccc(-n2c(/C=C/c3ccc(C#N)cc3)nc3ccccc3c2=O)c1,MIC,Staphylococcus aureus [1],0.25 µg/mL
N#Cc1ccc(/C=C/c2nc3ccccc3c(=O)n2-c2cccc(C#N)c2)cc1,MIC,Staphylococcus aureus [1],0.5 µg/mL
O=c1c2c(Br)cc(Br)cc2nc(-c2ccccc2)n1-c1nc2ccc(Br)cc2s1,MIC,Staphylococcus aureus [4],1 to 8.5 µg/mL
same,MIC,Escherichia coli [5],1 to 8.5 µg/mL
same,MIC,Pseudomonas aeruginosa [6],1 to 8.5 µg/mL
same,MIC,Enterococcus faecalis,1 to 8.5 µg/mL
Cc1nc2ccc(Br)cc2c(=O)n1/N=C/c1cc(I)cc(I)c1O,zone of inhibition at 100 ppm,Escherichia coli [2],16 mm
same,zone of inhibition at 100 ppm,Staphylococcus aureus [3],14 mm
Cc1nc2ccc(Br)cc2c(=O)n1/N=C/c1cc(Cl)cc(Cl)c1O,zone of inhibition at 100 ppm,Escherichia coli [2],16 mm
same,zone of inhibition at 100 ppm,Staphylococcus aureus [3],14 mm
C=CCOc1cccc(-n2c(/C=C/c3ccc(C#N)cc3)nc3ccccc3c2=O)c1,MIC,Staphylococcus aureus [1],0.125 µg/mL
COc1ccc2ncn(CC(c3cc4ccccc4o3)[n+]3ccn(C)c3)c(=O)c2c1 (stereo not given),IC50,MCF7,0.57 to 1 µM
Cc1ccc2c(c1)c(=O)n(-c1ccccc1)c1nnc(-c3ccccc3)n21,MIC,Staphylococcus aureus [7],32 µg/mL
same,inhibition zone (IZ),Staphylococcus aureus [8],17 mm
O=c1c2c(Br)cc(Br)cc2nc(-c2ccccc2)n1-c1nc2cc(Cl)ccc2s1,MIC,Staphylococcus aureus [4],1.2 to 9 µg/mL
same,MIC,Escherichia coli [5],1.2 to 9 µg/mL
same,MIC,Pseudomonas aeruginosa [6],1.2 to 9 µg/mL
same,MIC,Enterococcus faecalis,1.2 to 9 µg/mL
Cc1cccc2c(=O)n(-c3cccc(O)c3)c(/C=C/c3ccc(C#N)cc3)nc12,MIC,Staphylococcus aureus [1],0.5 µg/mL
CN(C)/C=C/c1nc2ccccc2c(=O)n1-c1cccc(C(=O)NC2CC2)c1,MIC,Staphylococcus aureus [1],> 64 µg/mL
CNc1nc(NCc2ccccc2)nc2cc(C)ccc12,MIC,Acinetobacter baumannii [9],0.5 µM
same,CC50 at 48 h,[10],23 µM
same,survival at 2 mg/kg,Acinetobacter baumannii [11],90%
N#Cc1ccc(/C=C/c2nc3ccccc3c(=O)n2-c2ccc(O)cc2)cc1,MIC,Staphylococcus aureus [1],8 µg/mL
N#Cc1ccc(/C=C/c2nc3cccc(Cl)c3c(=O)n2-c2cccc(C(=O)O)c2)cc1,MIC,Staphylococcus aureus [1],8 µg/mL
N#Cc1ccc(/C=C/c2nc3ccccc3c(=O)n2-c2cccc(C(=O)NC3CC3)c2)cc1,MIC,Staphylococcus aureus [1],0.5 µg/mL
Cc1nc2ccc(I)cc2c(=O)n1/N=C/c1cc(Br)cc(Br)c1O,zone of inhibition at 100 ppm,Escherichia coli [2],16 mm
same,zone of inhibition at 100 ppm,Staphylococcus aureus [3],14 mm
N#Cc1ccc(/C=C/c2nc3ccccc3c(=O)n2-c2cccc(C(=O)N3CCCC3)c2)cc1,MIC,Staphylococcus aureus [1],4 µg/mL
Cc1nc2ccc(I)cc2c(=O)n1/N=C/c1cc(I)cc(I)c1O,zone of inhibition at 100 ppm,Escherichia coli [2],16 mm
same,zone of inhibition at 100 ppm,Staphylococcus aureus [3],14 mm
CNc1nc(NCc2ccccc2)nc2cc(Cl)ccc12,MIC,Acinetobacter baumannii [9],0.5 µM
same,CC50 at 48 h,[10],23 µM
same,survival at 2 mg/kg,Acinetobacter baumannii [11],90%
CNc1nc(NCc2ccccc2)nc2ccc(Br)cc12,MIC,Acinetobacter baumannii [9],0.5 µM
same,CC50 at 48 h,[10],23 µM
same,survival at 2 mg/kg,Acinetobacter baumannii [11],90%
CNc1nc(NCc2ccccc2)nc2cc(Br)ccc12,MIC,Acinetobacter baumannii [9],0.5 µM
same,CC50 at 48 h,[10],23 µM
same,survival at 2 mg/kg,Acinetobacter baumannii [11],90%
Cn1cc[n+](C(Cn2cnc3ccccc3c2=O)c2cc3cc(Br)ccc3o2)c1 (stereo not given),IC50,MCF7,0.57 to 1 µM
N#Cc1ccc(/C=C/c2nc3ccccc3c(=O)n2-c2cccc(C(=O)N3CCOCC3)c2)cc1,MIC,Staphylococcus aureus [1],8 µg/mL
Cc1nc2ccc(I)cc2c(=O)n1/N=C/c1cc(Cl)cc(Cl)c1O,zone of inhibition at 100 ppm,Escherichia coli [2],16 mm
same,zone of inhibition at 100 ppm,Staphylococcus aureus [3],14 mm
C#CCOc1cccc(-n2c(/C=C/c3ccc(C#N)cc3)nc3ccccc3c2=O)c1,MIC,Staphylococcus aureus [1],0.25 µg/mL
N#Cc1ccc(/C=C/c2nc3ccccc3c(=O)n2-c2cccc(C(=O)N3CCCCC3)c2)cc1,MIC,Staphylococcus aureus [1],4 µg/mL
Cc1nc2ccccc2c(=O)n1-c1cccc(C(=O)NC2CC2)c1,MIC,Staphylococcus aureus [1],> 64 µg/mL
Cc1cccc2c(=O)n(-c3cccc(C(=O)O)c3)c(/C=C/c3ccc(C#N)cc3)nc12,MIC,Staphylococcus aureus [1],2 µg/mL
C#Cc1cccc(-n2c(/C=C/c3ccc(C#N)cc3)nc3ccccc3c2=O)c1,MIC,Staphylococcus aureus [1],0.5 µg/mL
CNc1nc(NCc2ccccc2)nc2ccc(C)cc12,MIC,Acinetobacter baumannii [9],0.5 µM
same,CC50 at 48 h,[10],23 µM
same,survival at 2 mg/kg,Acinetobacter baumannii [11],90%
O=c1c2ccc(F)cc2ncn1CC(O)Cn1cncn1 (stereo not given),MIC,Staphylococcus aureus [12],8 µg/mL
CNc1nc(NCc2ccccc2)nc2ccc(Cl)cc12,MIC,Acinetobacter baumannii [9],0.5 µM
same,CC50 at 48 h,[10],23 µM
same,survival at 2 mg/kg,Acinetobacter baumannii [11],90%
COc1cc(/C=N/n2c(C)nc3ccc(I)cc3c2=O)cc(I)c1O,zone of inhibition at 100 ppm,Escherichia coli [2],16 mm
same,zone of inhibition at 100 ppm,Staphylococcus aureus [3],14 mm
C#CCOc1cccc(-n2c(/C=C/c3ccc(Cl)cc3)nc3ccccc3c2=O)c1,MIC,Staphylococcus aureus [1],32 µg/mL
COc1cc(/C=N/n2c(C)nc3ccc(Br)cc3c2=O)cc(Br)c1O,zone of inhibition at 100 ppm,Escherichia coli [2],16 mm
same,zone of inhibition at 100 ppm,Staphylococcus aureus [3],14 mm
Nc1nc(-n2c(-c3ccc([N+](=O)[O-])cc3)nc3ccccc3c2=O)nnc1-c1cccc(Cl)c1Cl,MIC,Helicobacter pylori,25 µg/mL
Cn1cc[n+](C(Cn2cnc3ccccc3c2=O)c2cc3ccccc3o2)c1 (stereo not given),IC50,MCF7,0.57 to 1 µM
Cc1ccc2c(c1)c(=O)n(-c1ccccc1)c1n[nH]c(=S)n21,MIC,Staphylococcus aureus [7],32 µg/mL
same,inhibition zone (IZ),Staphylococcus aureus [8],17 mm
Cc1ccccc1NC(=O)Nn1c(-c2ccccc2)nc2ccccc2c1=O,MIC,Staphylococcus aureus [13],1.56 µg/mL
same,MIC,Bacillus subtilis,1.56 µg/mL
same,MIC,Pseudomonas aeruginosa [14],1.56 µg/mL
CN(C)[C@@H]1C(O)=C(C(N)=O)C(=O)[C@@]2(O)C(O)=C3C(=O)c4c(O)cccc4[C@@](C)(O)[C@H]3C[C@@H]12 [TETRACYCLINE],zone of inhibition at 100 ppm,Escherichia coli [2],6 to 27 mm
same,zone of inhibition at 100 ppm,Staphylococcus aureus [3],12 to 24 mm
